Laboratory results published in US11696904B2, “Prodrug for therapeutic applications” (The Regents of the University of California, priority 2020, dated 2023).

Key:
[1] = system: circulating B and T lymphocytes; assay: Lymphocyte sequestration; assay type: in vivo, mice; settings: 10 mg/kg (32 μmol/kg) i.p., blood 12 h post-injection, compared to saline or FTY-k-PEG
Description: Lymphocyte sequestration. Female 8-24 week old C57BL6 mice were intraperitoneally injected with vehicle (0.9% saline or 20% acidified DMSO in 0.9% saline), 10 mg/kg (32 μmol/kg) fingolimod, or 155 mg/kg FTY-k-PEG (32 μmol/kg). After 12 h, blood was collected from the retro-orbital sinus under ketamine/xylazine anesthesia. Whole blood (10 μL) was added to 190 μL of ACK red blood cell lysis buffer, the mixture was incubated at ambient temperature for 3-5 min […], and the white blood cells were recovered by centrifugation. Nucleated cells (Hoechst33342-positive) were counted using a hemocytometer to obtain the white blood cell count. Separately, 50 μL of whole blood was added to 1 mL of ACK red blood cell lysis buffer and incubated for 3-5 min at RT. Cells were washed with 2% fetal calf serum (FCS, Atlanta Biologicals (Flowery Branch, Ga.) in PBS with 0.05% NaN3 (Sigma Aldrich (Milwaukee, Wis.)) and red blood cell lysis was repeated. Tubes were decanted and resuspended in 100 μL of 10% FCS in PBS with 0.05% NaN3 and directly conjugated antibodies against B220, CD4, or CD8 (all from Biolegend, San Diego, Calif.) for 30 min on ice. Cells were analyzed on a BD LSR II flow cytometer; the analysis was restricted to live cells (DAPI-negative).
Avoided bradycardia and lymphopenia in vivo by FTY-k-PEG. […]

[2] = DNAge (epigenetic aging clock) analysis; assay type: in vivo; settings: healthy BALB/c mice, 32 μmol/kg daily i.p., blood two days post-treatment
Description: DNAge® (epigenetic aging clock) analysis. Blood samples (100 μL) were collected in triplicate from healthy female BALB/c mice treated as described above. Upon immediate preservation in DNA/RNA Shield™ (Zymo Research, Irvine, Calif.), genomic DNA was purified using Quick-DNA Plus Kit (Zymo Research) as instructed by the manufacturer. Sample library preparation and data analysis for mouse DNAge® (epigenetics aging clock) were performed by service provider (Zymo Research). Briefly, genomic DNA (200 ng) was bisulfite-converted using EZ DNA Methylation_Lightning™ Kit (Zymo Research). Bisulfite-converted DNA libraries for targeted bisulfite sequencing platform, called SWARM® (Simplified Whole-panel Amplification Reaction Method), were sequenced on a HiSeq 1500 sequencer for >1,000× coverage. Sequence reads were identified using Illumina base calling software (San Diego, Calif.) and aligned to the reference genome using Bismark, an aligner optimized for bisulfite sequence data and methylation calling. The methylation level of each sampled cytosine was estimated as the number of reads reporting a C, divided by the total number of reads reporting a C or T. DNA methylation levels of >500 age-related CpG loci were used for age prediction using Zymo Research's proprietary […] DNAge® algorithms: […]

C57BL/6 mice = assay: Heart rate (ECG telemetry); assay type: in vivo; settings: single i.p. dose 10 mg/kg, monitored 10 h, conscious mice
Description: Heart rate. Male C57BL/6 mice age 4-6 months were surgically implanted with DSI TA-ETAF20 electrocardiographic telemetry devices (Data Sciences International, St. Paul, Minn.) in the mouse's abdominal cavity with biopotential leads sutured in place in the chest wall. The electrocardiographic data was collected and recorded using the PhysioTel telemetry system and Dataquest A.R.T 4.0 software (Data Sciences International). Mice were permitted two week-long recovery after surgery before initiation of baseline telemetry recordings. Heart rate was calculated from ECG data taken in the freely moving, conscious mice. Mice (n=3) were intraperitoneally treated with a single dose of vehicle (0.9% saline or 20% acidified DMSO in 0.9% saline), 10 mg/kg fingolimod, or 155 mg/kg FTY-k-PEG, and heart rate was continuously monitored for 10 h. Mice were rested for two weeks at which point the experiment was repeated with the mice assigned to the alternate group. […]
Avoided bradycardia and lymphopenia in vivo by FTY-k-PEG. To test whether FTY-k-PEG avoids bradycardia, C57BL/6 mice were surgically implanted with an electrocardiographic telemetry device and heart rate was calculated from ECG data taken in the freely moving, conscious mice after intraperitoneal (i.p.) injection of saline, fingolimod, or acid-cleavable FTY-k-PEG (see FIG. 10A). […]

FL5.12/p190-Luc cells = assay: In vivo bioluminescence imaging, BCR-Abl-driven leukemogenesis model; settings: 32 μmol/kg daily i.p., day 6, Balb/c mice, p<0.01
Description: In vivo bioluminescence imaging. In an immunocompetent syngeneic model, 6-7 weeks old Balb/c female mice were intravenously injected with Ph+FL5.12/p190/Luc cells (1.0×10^5 cells per mouse) in the tail vein. After 5 days, the mice received daily i.p. injections of fingolimod, FTY-k-PEG, FTY-PEG (all at a dose of 32 μmol/kg) or PBS for 5 days (n=5). Mice were placed under anesthesia using isoflurane (Patterson Veterinary, Greeley, Colo.) and interperitoneally injected with 120 mg/kg of synthetic firefly luciferin (Promega, Madison, Wis.) in PBS at a concentration of 20 mg/mL immediately prior to bioluminescence imaging with an IVIS Lumina system (Caliper Life Sciences, Hopkinton, Mass.) for 4 min. Mice were under anesthesia for the entire duration of imaging and bioluminescence signal intensities in mice were quantified using Living Image 3.2 software associated with the imaging system.
Preserved anti-leukemic effect of FTY-k-PEG in vivo. To assess the anti-leukemic effects of FTY-k-PEG in vivo while eliminating bradycardia and immunosuppressive activity, a BCR-Abl-driven leukemogenesis model in which fingolimod is effectively was used. […] The leukemic expansion of FL5.12/p190-Luc cells was assessed by i.p. administration of synthetic firefly luciferin (120 mg/kg) and subsequent bioluminescence imaging (see FIG. 12B-D). […]

[3] = Water solubility of FTY prodrugs; assay type: physicochemical; settings: for water solubility: qualitative
Description: Design and synthesis of FTY-k-PEG. Acetals (ketals) were chosen for their structural versatility, facile synthesis, and tunable cleavability under mildly acidic conditions. The endosomal pH of ˜5.0 is an excellent intracellular trigger for drug release from acid-labile drug conjugates. Initial synthetic methodology utilized 2-methoxypropene to generate methyl ketal-functionalized fingolimod (mkFTY) (see FIG. 2). […] To retain the ketal moiety while increasing solubility of the prodrug, N-Fmoc piperidone was used to generate a cyclic ketal in kFTY (7) (see FIG. 3), eliminating the hydrophobic methyl groups and incorporating a secondary amine as a functional handle for further conjugation. The ketal formation was achieved using azeotropic distillation by which constant removal of water efficiently drives the reaction to completion. […] To further increase water solubility, kFTY was conjugated to succinimidyl carboxyl methyl ester polyethylene glycol (SCM-PEG 5 k) prior to trifluoroacetamide (TFA)-deprotection to produce FTY-k-PEG (8). FTY-k-PEG was analyzed by MALDI-TOF to confirm PEGylation and TFA-deprotection (see FIG. 4). […] Other macromolecules may be used for conjugation, and a plethora of stimuli-responsive linkers may be explored to further enhance the specificity and safety of an FTY prodrug. The acid-cleavable ketal linkage can be replaced by other moieties responsive to intrinsic environmental stimuli (redox, pH, etc.), external stimuli (heat, ultrasound, photo-irradiation, electrochemical, magnetic, etc.), or specific biological processes (enzymatic cleavage, ion chelation, etc.), depending the molecular structure of a drug and the stimuli to be utilized for target indication. In addition, a variety of macromolecules can also be used in lieu of PEG, including polysaccharides (i.e., hyaluronic acids), peptides, and various synthetic polymers for improved water-solubility, extended circulation, avoided premature activation, nanoparticle formulation, theranostic applications, combating resistance, and specific targeting. […]

[4] = system: nutrient transporter associated protein 4F2hc; assay: Nutrient transporter expression (surface 4F2hc, flow cytometry); assay type: cell-based, murine; settings: FL5.12 cells, 3 h treatment, compared to fingolimod
Description: Cell culture. Murine IL-3-dependent proB-cell lymphoid FL5.12 cells and FL5.12/BCR-Abl p190 cells were obtained by gift. FL5.12/p190 cells were transduced to express firefly luciferase by lentiviral vectors purchased from Capital Bioscience (Gaithersberg, Md.). FL5.12/p190 and luciferase-expressing FL5.12/p190 cells (FL5.12/p190/Luc cells) were maintained at 250,000-800,000 cells/mL in RPMI 1640 media containing 10% (v/v) FBS and 1% (v/v) streptomycin-penicillin. FL5.12 cells were cultured in the same media supplemented with 5 ng/mL IL3. All cells were cultured at 37° C. with 5% CO2 and 100% humidity.
Nutrient transporter expression. Surface 4F2hc expression was measured using phycoerythrin (PE)-conjugated rat anti-mouse 4F2hc antibody (BD Pharmingen, San Diego, Calif.); analysis by flow cytomery was restricted to viable cells. PE-conjugated mouse IgG1, k (BD Pharmingen) was used as an isotype control. Cells were analyzed on a BD LSR II flow cytometer (BD Biosciences, San Jose, Calif.) and with FlowJo software (Treestar, Ashland, Oreg.).
To confirm active drug was released selectively upon acid-hydrolysis, drugs were incubated in buffers of pH 7.4 and pH 5.0 prior to incubation with the cells (see FIG. 8). Fingolimod was pre-incubated in the same buffers to rule out the possibility that the buffers would affect drug's activity or contribute to cell apoptosis. […]

| reduction of lymphocytes [1] | epigenetic age [2] | SMILES | reduction of heart rate (C57BL/6 mice) | average bioluminescence signal lower than that of PBS (FL5.12/p190-Luc cells) | concentration up to which readily soluble in water [3] | water solubility [3] | down-regulation of surface 4F2hc expression [4] |
| --- | --- | --- | --- | --- | --- | --- | --- |
| ~60% | significant increase in epigenetic age | CCCCCCCCc1ccc(CCC(N)(CO)CO)cc1 [fingolimod, Fingolimod] | 50% | 64% | – | – | – |
| – | – | CCCCCCCCc1ccc(CCC2(N)COC3(CCNCC3)OC2)cc1 [kFTY] | – | – | ≤ 10 mM | increased water solubility compared to mkFTY | – |
| – | – | CCCCCCCCc1ccc(CCC2(N)COC(C)(C)OC2)cc1 [mkFTY] | – | – | – | loss of water solubility | nearly identical efficacy to fingolimod |
